Earlier results in patent US20070196481A1, “Sustained-release tablet composition” (priority 2002, published 2007).
Counter-ions that a name gives are not always drawn.

Row | solubility in water | SMILES
1 | about 250 mg/ml | CCOc1ccccc1OC(c1ccccc1)C1CNCCO1 (centres unmarked) [reboxetine mesylate]
2 | about 200 mg/ml | CCCNC1CCc2nc(N)sc2C1 (centres unmarked) [pramipexole dihydrochloride]
